In article PMC9386376, “Discovery of spirooxindole-derived small-molecule compounds as novel HDAC/MDM2 dual inhibitors and investigation of their anticancer activity” (Frontiers in Oncology, 2022) one finds IC50 data, which are given here for one molecule.

The structures appear in SMILES notation.

The assay deals with T1, HDAC10 (Homo sapiens, UniProt Q969S8).
T1 sequence (Q969S8 1-669): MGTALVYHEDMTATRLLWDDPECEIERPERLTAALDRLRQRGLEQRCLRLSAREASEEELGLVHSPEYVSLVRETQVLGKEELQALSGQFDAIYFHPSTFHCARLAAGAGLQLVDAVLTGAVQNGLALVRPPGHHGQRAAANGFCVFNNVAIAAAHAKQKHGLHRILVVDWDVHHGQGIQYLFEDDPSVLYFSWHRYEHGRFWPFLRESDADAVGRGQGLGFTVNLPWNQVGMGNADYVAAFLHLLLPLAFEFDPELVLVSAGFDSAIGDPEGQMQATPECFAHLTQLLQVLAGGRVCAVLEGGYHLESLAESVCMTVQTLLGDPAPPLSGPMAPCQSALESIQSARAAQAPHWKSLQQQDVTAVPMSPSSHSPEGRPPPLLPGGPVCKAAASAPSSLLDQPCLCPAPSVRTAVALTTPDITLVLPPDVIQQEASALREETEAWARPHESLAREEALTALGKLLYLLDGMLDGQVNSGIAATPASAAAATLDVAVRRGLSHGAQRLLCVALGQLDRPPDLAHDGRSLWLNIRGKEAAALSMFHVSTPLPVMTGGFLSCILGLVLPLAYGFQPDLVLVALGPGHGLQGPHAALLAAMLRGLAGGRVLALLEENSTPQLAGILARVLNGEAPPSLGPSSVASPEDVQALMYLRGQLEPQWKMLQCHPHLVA
The experiment in a line: HDAC isoform selectivity, HDAC10. The note with it: HDAC subtype panel. It is filed as biochemical.

The IC50 is the point on the concentration scale where inhibition reaches its midpoint. Low values mean higher potency, high ones lower potency. Regarding `O=C(CCCCCCC(=O)N1CCC(C(=O)Nc2ccc([C@@H]3[C@H]4CSCN4[C@]4(C(=O)Nc5cc(Cl)ccc54)[C@H]3C(=O)c3ccccc3)cc2)CC1)NO` [compound 11b, N-(4-((3R,6'S,7'R,7a'S)-6'-benzoyl-6-chloro-2-oxo-1',6',7',7a'-tetrahydro-3'H-spiro[indoline-3,5'-pyrrolo[1,2-c]thiazol]-7'-yl)phenyl)-1-(8-(hydroxyamino)-8-oxooctanoyl)piperidine-4-carboxamide], the IC50 amounted to 1490 ± 37 nM.
